pKi: −log10 of the molar value.
Tests used:
Carbonic anhydrase 9 = Carbonic anhydrase 9 (Homo sapiens, UniProt Q16790); assay: Inhibition of recombinant human CA9 preincubated for 15 mins by phenol red dye-based stopped-flow CO2 hydration assay
Carbonic anhydrase 2 = Carbonic anhydrase 2 (Homo sapiens, UniProt P00918); assay: Inhibition of recombinant human CA2 preincubated for 15 mins by phenol red dye-based stopped-flow CO2 hydration assay
Carbonic anhydrase 1 = Carbonic anhydrase 1 (Homo sapiens, UniProt P00915); assay: Inhibition of recombinant human CA1 preincubated for 15 mins by phenol red dye-based stopped-flow CO2 hydration assay
Carbonic anhydrase 1, sequence (P00915 whole entry): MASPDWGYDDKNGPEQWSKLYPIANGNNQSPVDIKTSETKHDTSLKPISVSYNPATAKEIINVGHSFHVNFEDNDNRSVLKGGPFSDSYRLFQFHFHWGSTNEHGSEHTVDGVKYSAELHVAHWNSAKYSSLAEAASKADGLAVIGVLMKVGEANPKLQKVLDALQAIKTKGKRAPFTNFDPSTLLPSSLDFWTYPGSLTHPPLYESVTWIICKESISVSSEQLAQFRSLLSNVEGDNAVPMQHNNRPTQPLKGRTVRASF

Carbonic anhydrase 4 = Carbonic anhydrase 4 (Homo sapiens, UniProt P22748); assay: Inhibition of recombinant human CA4 preincubated for 15 mins by phenol red dye-based stopped-flow CO2 hydration assay
Carbonic anhydrase 4, sequence (P22748 whole entry): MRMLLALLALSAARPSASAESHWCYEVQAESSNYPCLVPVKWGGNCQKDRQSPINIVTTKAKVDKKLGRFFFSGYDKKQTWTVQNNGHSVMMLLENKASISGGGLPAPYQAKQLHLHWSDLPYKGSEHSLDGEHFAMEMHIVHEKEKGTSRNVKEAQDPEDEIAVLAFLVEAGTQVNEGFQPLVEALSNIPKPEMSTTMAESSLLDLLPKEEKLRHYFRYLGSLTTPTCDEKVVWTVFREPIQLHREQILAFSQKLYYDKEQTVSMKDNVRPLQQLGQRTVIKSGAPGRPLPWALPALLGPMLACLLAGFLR

| SMILES | pKi (Carbonic anhydrase 9) | pKi (Carbonic anhydrase 2) | pKi (Carbonic anhydrase 1) | pKi (Carbonic anhydrase 4) |
| --- | --- | --- | --- | --- |
| O=C1CCCc2c1cnn2-c1ccc(S(=O)(=O)Nc2cccc([N+](=O)[O-])c2)cc1 | < 4.00 | < 4.00 |  |  |
| CC1(C)CC(=O)c2cnn(-c3ccc(S(=O)(=O)Nc4cccc(Cl)c4)cc3)c2C1 | < 4.00 | < 4.00 | < 4.00 |  |
| O=C1CC(c2ccccc2)Cc2c1cnn2-c1ccc(S(=O)(=O)Nc2ccccc2)cc1 (centres undefined) | 4.02 |  |  |  |
| CC1(C)CC(=O)c2cnn(-c3ccc(S(=O)(=O)Nc4ccc([N+](=O)[O-])cc4)cc3)c2C1 | < 4.00 |  | < 4.00 |  |
| Cc1ccc(NS(=O)(=O)c2ccc(-n3ncc4c3CC(C)(C)CC4=O)cc2)cc1 | < 4.00 |  | < 4.00 |  |
| CC1(C)CC(=O)c2cnn(-c3ccc(S(=O)(=O)Nc4ccccc4)cc3)c2C1 | < 4.00 |  |  |  |
| O=C1CCCc2c1cnn2-c1ccc(S(=O)(=O)Nc2ccc([N+](=O)[O-])cc2)cc1 | 4.08 |  |  |  |
| COc1cccc(NS(=O)(=O)c2ccc(-n3ncc4c3CC(C)(C)CC4=O)cc2)c1 | < 4.00 |  |  |  |
| Cc1cccc(NS(=O)(=O)c2ccc(-n3ncc4c3CC(C)(C)CC4=O)cc2)c1 | < 4.00 | < 4.00 | < 4.00 |  |
| CC1(C)CC(=O)c2cnn(-c3ccc(S(=O)(=O)Nc4cccc([N+](=O)[O-])c4)cc3)c2C1 | < 4.00 |  | < 4.00 |  |
| O=C1CCCc2c1cnn2-c1ccc(S(=O)(=O)Nc2ccccc2)cc1 | 4.01 |  |  |  |
| COc1ccc(NS(=O)(=O)c2ccc(-n3ncc4c3CC(C)(C)CC4=O)cc2)cc1 | < 4.00 |  |  |  |
| O=C1CC(c2ccccc2)Cc2c1cnn2-c1ccc(S(=O)(=O)Nc2cccc([N+](=O)[O-])c2)cc1 (centres undefined) | 4.07 |  |  | < 4.00 |
| COc1cccc(NS(=O)(=O)c2ccc(-n3ncc4c3CCCC4=O)cc2)c1 | < 4.00 | < 4.00 |  | < 4.00 |
| CC1(C)CC(=O)c2cnn(-c3ccc(S(=O)(=O)Nc4ccc(Cl)cc4)cc3)c2C1 | < 4.00 |  |  |  |
| O=C1CCCc2c1cnn2-c1ccc(S(=O)(=O)Nc2ccc(Cl)cc2)cc1 | < 4.00 |  |  |  |

These reach a higher pKi (Carbonic anhydrase 9). Values come first.

| pKi (Carbonic anhydrase 9) | pKi (Carbonic anhydrase 2) | pKi (Carbonic anhydrase 1) | pKi (Carbonic anhydrase 4) | SMILES |
| --- | --- | --- | --- | --- |
| 4.38 |  |  |  | O=C1CC(c2ccccc2)Cc2c1cnn2-c1ccc(S(=O)(=O)Nc2cccc(Cl)c2)cc1 (centres undefined) |
| 4.21 |  |  | < 4.00 | Cc1cccc(NS(=O)(=O)c2ccc(-n3ncc4c3CC(c3ccccc3)CC4=O)cc2)c1 (centres undefined) |
| 5.39 |  |  |  | O=C1CC(c2ccccc2)Cc2c1cnn2-c1ccc(S(=O)(=O)Nc2ccc([N+](=O)[O-])cc2)cc1 (centres undefined) |
| 4.24 |  |  |  | COc1cccc(NS(=O)(=O)c2ccc(-n3ncc4c3CC(c3ccccc3)CC4=O)cc2)c1 (centres undefined) |
| 4.41 |  |  |  | Cc1ccc(NS(=O)(=O)c2ccc(-n3ncc4c3CCCC4=O)cc2)cc1 |
| 4.33 |  |  |  | Cc1ccc(NS(=O)(=O)c2ccc(-n3ncc4c3CC(c3ccccc3)CC4=O)cc2)cc1 (centres undefined) |
| 4.43 |  |  |  | O=C1CCCc2c1cnn2-c1ccc(S(=O)(=O)Nc2cccc(Cl)c2)cc1 |
| 4.48 |  |  |  | Cc1cccc(NS(=O)(=O)c2ccc(-n3ncc4c3CCCC4=O)cc2)c1 |
| 4.33 |  |  |  | O=C1CC(c2ccccc2)Cc2c1cnn2-c1ccc(S(=O)(=O)Nc2ccc(Cl)cc2)cc1 (centres undefined) |
| 4.40 |  |  |  | COc1ccc(NS(=O)(=O)c2ccc(-n3ncc4c3CC(c3ccccc3)CC4=O)cc2)cc1 (centres undefined) |
| 4.25 |  |  |  | COc1ccc(NS(=O)(=O)c2ccc(-n3ncc4c3CCCC4=O)cc2)cc1 |
